Measurements published in PubChem BioAssay AID1259407 (Chemical Carcinogenesis Research Information System (CCRIS), 2018).
The source made the active and inactive calls. How the calls were made is not given here.

Test system: CCRIS mutagenicity, Ames/micronucleus/aberration tests
Experiment: CCRIS mutagenicity studies

**Q.** What does the source list for `Nc1c2ccccc2nc2ccccc12`?
**A.** mutagenic call (Test System: AMES SALMONELLA TYPHIMURIUM, Strain/Indicator: TA97A, Metabolic Activation: NONE, Method: STANDARD PLATE): active; positive; mutagenic call (Test System: AMES SALMONELLA TYPHIMURIUM, Strain/Indicator: TA98, Metabolic Activation: HAMSTER, LIVER, S-9, AROCLOR 1254 (10%), Method: PREINCUBATION): inactive; negative; mutagenic call (Test System: AMES SALMONELLA TYPHIMURIUM, Strain/Indicator: TA98, Metabolic Activation: NONE, Method: FLUCTUATION (MICROTITER)): inactive; negative; mutagenic call (Test System: AMES SALMONELLA TYPHIMURIUM, Strain/Indicator: TA98, Metabolic Activation: NONE, Method: PREINCUBATION): inactive; negative; mutagenic call (Test System: AMES SALMONELLA TYPHIMURIUM, Strain/Indicator: TA98, Metabolic Activation: NONE, Method: SPIRAL ASSAY): inactive; negative; mutagenic call (Test System: AMES SALMONELLA TYPHIMURIUM, Strain/Indicator: TA98, Metabolic Activation: NONE, Method: STANDARD PLATE): inactive; negative; mutagenic call (Test System: AMES SALMONELLA TYPHIMURIUM, Strain/Indicator: TA98, Metabolic Activation: RAT, LIVER, S-9, AROCLOR 1254 (10%), Method: PREINCUBATION): inactive; negative; mutagenic call (Test System: AMES SALMONELLA TYPHIMURIUM, Strain/Indicator: TA98, Metabolic Activation: RAT, LIVER, S-9, AROCLOR 1254, Method: SPIRAL ASSAY): inactive; negative; mutagenic call (Test System: AMES SALMONELLA TYPHIMURIUM, Strain/Indicator: TA98, Metabolic Activation: RAT, LIVER, S-9, AROCLOR 1254, Method: STANDARD PLATE): inactive; negative; mutagenic call (Test System: AMES SALMONELLA TYPHIMURIUM, Strain/Indicator: TA100, Metabolic Activation: HAMSTER, LIVER, S-9, AROCLOR 1254 (10%), Method: PREINCUBATION): inactive; negative; mutagenic call (Test System: AMES SALMONELLA TYPHIMURIUM, Strain/Indicator: TA100, Metabolic Activation: NONE, Method: PREINCUBATION): inactive; negative; mutagenic call (Test System: AMES SALMONELLA TYPHIMURIUM, Strain/Indicator: TA100, Metabolic Activation: NONE, Method: SPIRAL ASSAY): inactive; negative; mutagenic call (Test System: AMES SALMONELLA TYPHIMURIUM, Strain/Indicator: TA100, Metabolic Activation: NONE, Method: STANDARD PLATE): inactive; negative; mutagenic call (Test System: AMES SALMONELLA TYPHIMURIUM, Strain/Indicator: TA100, Metabolic Activation: RAT, LIVER, S-9, AROCLOR 1254 (10%), Method: PREINCUBATION): inactive; negative; mutagenic call (Test System: AMES SALMONELLA TYPHIMURIUM, Strain/Indicator: TA100, Metabolic Activation: RAT, LIVER, S-9, AROCLOR 1254, Method: SPIRAL ASSAY): inactive; negative; mutagenic call (Test System: AMES SALMONELLA TYPHIMURIUM, Strain/Indicator: TA100, Metabolic Activation: RAT, LIVER, S-9, AROCLOR 1254, Method: STANDARD PLATE): inactive; negative; mutagenic call (Test System: AMES SALMONELLA TYPHIMURIUM, Strain/Indicator: TA1535, Metabolic Activation: HAMSTER, LIVER, S-9, AROCLOR 1254 (10%), Method: PREINCUBATION): inactive; negative; mutagenic call (Test System: AMES SALMONELLA TYPHIMURIUM, Strain/Indicator: TA1535, Metabolic Activation: NONE, Method: PREINCUBATION): inactive; negative; mutagenic call (Test System: AMES SALMONELLA TYPHIMURIUM, Strain/Indicator: TA1535, Metabolic Activation: NONE, Method: SPIRAL ASSAY): inactive; negative; mutagenic call (Test System: AMES SALMONELLA TYPHIMURIUM, Strain/Indicator: TA1535, Metabolic Activation: NONE, Method: STANDARD PLATE): inactive; negative; mutagenic call (Test System: AMES SALMONELLA TYPHIMURIUM, Strain/Indicator: TA1535, Metabolic Activation: RAT, LIVER, S-9, AROCLOR 1254 (10%), Method: PREINCUBATION): inactive; negative; mutagenic call (Test System: AMES SALMONELLA TYPHIMURIUM, Strain/Indicator: TA1535, Metabolic Activation: RAT, LIVER, S-9, AROCLOR 1254, Method: SPIRAL ASSAY): inactive; negative; mutagenic call (Test System: AMES SALMONELLA TYPHIMURIUM, Strain/Indicator: TA1535, Metabolic Activation: RAT, LIVER, S-9, AROCLOR 1254, Method: STANDARD PLATE): inactive; negative; mutagenic call (Test System: AMES SALMONELLA TYPHIMURIUM, Strain/Indicator: TA1535, Metabolic Activation: RAT, LIVER, S-9, TETRACHLOROBIPHENYL, Method: PREINCUBATION): inactive; negative; mutagenic call (Test System: AMES SALMONELLA TYPHIMURIUM, Strain/Indicator: TA1537, Metabolic Activation: HAMSTER, LIVER, S-9, AROCLOR 1254 (10%), Method: PREINCUBATION): active; positive; mutagenic call (Test System: AMES SALMONELLA TYPHIMURIUM, Strain/Indicator: TA1537, Metabolic Activation: NONE): active; positive; mutagenic call (Test System: AMES SALMONELLA TYPHIMURIUM, Strain/Indicator: TA1537, Metabolic Activation: NONE, Method: PREINCUBATION): active; positive; mutagenic call (Test System: AMES SALMONELLA TYPHIMURIUM, Strain/Indicator: TA1537, Metabolic Activation: NONE, Method: SPIRAL ASSAY): active; positive; mutagenic call (Test System: AMES SALMONELLA TYPHIMURIUM, Strain/Indicator: TA1537, Metabolic Activation: NONE, Method: STANDARD PLATE): active; positive; mutagenic call (Test System: AMES SALMONELLA TYPHIMURIUM, Strain/Indicator: TA1537, Metabolic Activation: RAT LIVER S-9, AROCLOR 1254, Method: FLUCTUATION (MICROTITER)): active; positive; mutagenic call (Test System: AMES SALMONELLA TYPHIMURIUM, Strain/Indicator: TA1537, Metabolic Activation: RAT, LIVER, S-9, AROCLOR 1254 (10%), Method: PREINCUBATION): active; positive; mutagenic call (Test System: AMES SALMONELLA TYPHIMURIUM, Strain/Indicator: TA1537, Metabolic Activation: RAT, LIVER, S-9, AROCLOR 1254, Method: SPIRAL ASSAY): active; positive; mutagenic call (Test System: AMES SALMONELLA TYPHIMURIUM, Strain/Indicator: TA1537, Metabolic Activation: RAT, LIVER, S-9, AROCLOR 1254, Method: STANDARD PLATE): active; positive; mutagenic call (Test System: AMES SALMONELLA TYPHIMURIUM, Strain/Indicator: TA1537, Metabolic Activation: RAT, LIVER, S-9, TETRACHLOROBIPHENYL, Method: PREINCUBATION): active; positive; mutagenic call (Test System: AMES SALMONELLA TYPHIMURIUM, Strain/Indicator: TA1538, Metabolic Activation: NONE, Method: PREINCUBATION): inactive; negative; mutagenic call (Test System: AMES SALMONELLA TYPHIMURIUM, Strain/Indicator: TA1538, Metabolic Activation: RAT, LIVER, S-9, TETRACHLOROBIPHENYL, Method: PREINCUBATION): inactive; negative; mutagenic call (Test System: AMES SALMONELLA TYPHIMURIUM, Strain/Indicator: TA1977, Metabolic Activation: NONE, Method: PREINCUBATION): active; positive; mutagenic call (Test System: AMES SALMONELLA TYPHIMURIUM, Strain/Indicator: TA1977, Metabolic Activation: RAT, LIVER, S-9, TETRACHLOROBIPHENYL, Method: PREINCUBATION): active; positive; mutagenic call (Test System: AMES SALMONELLA TYPHIMURIUM, Strain/Indicator: TA7001, Metabolic Activation: NONE, Method: FLUCTUATION (MICROTITER)): inactive; negative; mutagenic call (Test System: AMES SALMONELLA TYPHIMURIUM, Strain/Indicator: TA7002, Metabolic Activation: NONE, Method: FLUCTUATION (MICROTITER)): inactive; negative; mutagenic call (Test System: AMES SALMONELLA TYPHIMURIUM, Strain/Indicator: TA7003, Metabolic Activation: NONE, Method: FLUCTUATION (MICROTITER)): inactive; negative; mutagenic call (Test System: AMES SALMONELLA TYPHIMURIUM, Strain/Indicator: TA7004, Metabolic Activation: NONE, Method: FLUCTUATION (MICROTITER)): inactive; negative; mutagenic call (Test System: AMES SALMONELLA TYPHIMURIUM, Strain/Indicator: TA7005, Metabolic Activation: NONE, Method: FLUCTUATION (MICROTITER)): inactive; negative; mutagenic call (Test System: AMES SALMONELLA TYPHIMURIUM, Strain/Indicator: TA7006, Metabolic Activation: NONE, Method: FLUCTUATION (MICROTITER)): inactive; negative; mutagenic call (Test System: CHINESE HAMSTER OVARY, Strain/Indicator: CHO-K1-BH4 (HGPRT), Metabolic Activation: NONE, Method: SUSPENSION/PLATE): inactive; negative; mutagenic call (Test System: CHINESE HAMSTER OVARY, Strain/Indicator: CHO-K1-BH4 (HGPRT), Metabolic Activation: RAT, LIVER, S-9, AROCLOR, Method: SUSPENSION/PLATE): inactive; negative; mutagenic call (Test System: CHINESE HAMSTER V-79, Strain/Indicator: V-79/6-THIOGUANINE, Metabolic Activation: NONE, Method: FLASK ASSAY): inactive; negative; mutagenic call (Test System: E. COLI, Strain/Indicator: WP2 UVRA, Metabolic Activation: HAMSTER, LIVER, S-9, AROCLOR 1254, Method: STANDARD PLATE): inactive; negative; mutagenic call (Test System: E. COLI, Strain/Indicator: WP2 UVRA, Metabolic Activation: HAMSTER, LIVER, S-9, Method: STANDARD PLATE): inactive; negative; mutagenic call (Test System: E. COLI, Strain/Indicator: WP2 UVRA, Metabolic Activation: MOUSE, LIVER, S-9, AROCLOR 1254, Method: STANDARD PLATE): inactive; negative; mutagenic call (Test System: E. COLI, Strain/Indicator: WP2 UVRA, Metabolic Activation: MOUSE, LIVER, S-9, Method: STANDARD PLATE): inactive; negative; mutagenic call (Test System: E. COLI, Strain/Indicator: WP2 UVRA, Metabolic Activation: NONE, Method: STANDARD PLATE): inactive; negative; mutagenic call (Test System: E. COLI, Strain/Indicator: WP2 UVRA, Metabolic Activation: RAT, LIVER, S-9, AROCLOR 1254, Method: STANDARD PLATE): inactive; negative; mutagenic call (Test System: E. COLI, Strain/Indicator: WP2 UVRA, Metabolic Activation: RAT, LIVER, S-9, Method: STANDARD PLATE): inactive; negative; mutagenic call (Test System: E. coli, Strain/Indicator: KKi (wild-type), KK5 (recA56) and KK6 (uvrA6), Metabolic Activation: None, Method: Viable cells scored on LB-plates after 18 hr incubation): active; positive in all 3 strains (most common mutations minus frameshifts in repetitive; mutagenic call (Test System: UDS RAT HEPATOCYTES, Strain/Indicator: THY INCORP, Metabolic Activation: NONE, Method: AUTORADIOGRAPHY (SERUM-FREE MEDIA)): inactive; negative
